{
  "source": "patent US5482960A",
  "about": "“Nonpeptide endothelin antagonists” (Warner-Lambert Company, priority 1994, dated 1996)",
  "origin": "cited, not measured here",
  "key": {"[1]": {"test_system": "ETA", "settings": "oral; cited from earlier work"}, "[2]": {"test_system": "endothelin", "settings": "rats; cited from earlier work"}, "[3]": {"test_system": "small intestinal mucosa", "settings": "local intra-arterial, rats; cited from earlier work"}, "[4]": {"test_system": "liver", "settings": "cited from earlier work"}, "[5]": {"test_system": "ETA", "settings": "mouse model of endotoxic shock; cited from earlier work"}, "[6]": {"test_system": "ETA", "settings": "following subarachnoid hemorrhage; cited from earlier work"}, "[7]": {"test_system": "ET receptor", "settings": "allergic sheep; cited from earlier work"}},
  "note": "Where a SMILES comes first, the peptide text is derived from it. [ ]: non-standard residue; d: D form.",
  "data": [
    {"compound": "Cc1noc(NS(=O)(=O)c2cccc3c(N(C)C)cccc23)c1C", "note": "[5-(Dimethylamino)-N-(3,4-dimethyl-5-isoxazolyl)-1-naphthalenesulfonamide]", "values": [
      {"measurement": "antihypertensive effect", "setting": "[1]", "result": "demonstrated an oral antihypertensive effect"}
    ]},
    {"compound": "COc1cccc(Oc2c(NS(=O)(=O)c3ccc(C(C)(C)C)cc3)ncnc2OCCO)c1", "note": "[RO 46-2005]", "values": [
      {"measurement": "efficacy in models of acute renal ischemia and subarachnoid hemorrhage", "setting": "[2]", "result": "effective in models of acute renal ischemia and subarachnoid hemorrhage in rats"}
    ]},
    {"compound": "endothelin", "values": [
      {"measurement": "small intestinal mucosal damage", "setting": "[3]", "result": "induce small intestinal mucosal damage in rats in a dose-dependent manner"},
      {"measurement": "vasoconstriction of the hepatic vasculature and hepatic glucose output", "setting": "[4]", "result": "sustained vasoconstriction of the hepatic vasculature and a significant increase in hepatic glucose output"}
    ]},
    {"compound": "CC(C)C[C@@H]1NC(=O)[C@@H](C(C)C)NC(=O)[C@@H]2CCCN2C(=O)[C@@H](CC(=O)O)NC(=O)[C@@H](Cc2c[nH]c3ccccc23)NC1=O", "note": "[BQ-123] (cyclo(L[dW][dD]P[dV]))", "values": [
      {"measurement": "survival rate", "setting": "[5]", "result": "significantly increased the survival rate"},
      {"measurement": "early cerebral vasospasm", "setting": "[6]", "result": "prevent early cerebral vasospasm following subarachnoid hemorrhage"},
      {"measurement": "block of ET-1 induced bronchoconstriction and tracheal smooth muscle contraction", "setting": "[7]", "result": "block ET-1 induced bronchoconstriction and tracheal smooth muscle contraction"}
    ]}
  ]
}
